Laboratory results published in patent publication US20250152553A1, “CARBAMOTHIOATE, AND CARBAMODITHIOATE DERIVATIVES OF MDMA, MDA OR ITS OPTICALLY ACTIVE (R)- OR (S)-MDMA AND MDA ISOMERS” (EmpathBio, Inc., priority 2023, published 2025).
Converted amounts (≈) assume the structure as drawn.

Columns and labels:
[1] = Plasma stability in mouse plasma; format: in vitro ADME; conditions: for half-life at 1 μM: test concentration 1 μM
[2] = Chemical stability in PBS pH 6.5; format: physicochemical; conditions: for half-life: PBS pH 6.5; for Remaining Percentage (%) 0 min: PBS pH 6.5, 0 min; for Remaining Percentage (%) 30 min: PBS pH 6.5, 30 min; for Remaining Percentage (%) 60 min: PBS pH 6.5, 60 min; for Remaining Percentage (%) 120 min: PBS pH 6.5, 120 min; for Remaining Percentage (%) 240 min: PBS pH 6.5, 240 min
[3] = Solubility in FaSSIF; format: physicochemical; conditions: read-out: SOL (μM) FaSSIF

| Compound | Remaining Percentages (%) 0 min ([1]; 1 μM) [%] | Remaining Percentages (%) 15 min ([1]; 1 μM) [%] | Remaining Percentages (%) 30 min ([1]; 1 μM) [%] | Remaining Percentages (%) 60 min ([1]; 1 μM) [%] | Remaining Percentages (%) 120 min ([1]; 1 μM) [%] | half-life at 1 μM [1] [h] | half-life [2] [h] | Remaining Percentage (%) 0 min [2] [%] | Remaining Percentage (%) 30 min [2] [%] | Remaining Percentage (%) 60 min [2] [%] | Remaining Percentage (%) 120 min [2] [%] | Remaining Percentage (%) 240 min [2] [%] | solubility [3] [µM] | Remaining Percentages (%) 0 min ([1]; 5 μM) [%] | Remaining Percentages (%) 30 min ([1]; 5 μM) [%] | Remaining Percentages (%) 120 min ([1]; 5 μM) [%] | half-life at 5 μM ([1]; test concentration 5 μM (control)) [h] |
| --- | --- | --- | --- | --- | --- | --- | --- | --- | --- | --- | --- | --- | --- | --- | --- | --- | --- |
| COC(=S)NC(C)Cc1ccc2c(c1)OCO2 (stereo not shown) [Prodrug 2, O-methyl (1-(benzo[d][1,3]dioxol-5-yl)propan-2-yl)carbamothioate] | 100 | 101.54 | 99.62 | 96.35 | 91.94 | > 8.52 | > 17.1 | 100.00 | 105.00 | 100.45 | 102.27 | 105.00 | 279 (≈ 70.8 µg/mL) | – | – | – | – |
| CSC(=O)N(C)C(C)Cc1ccc2c(c1)OCO2 (stereo not shown) [Prodrug 5, S-methyl (1-(benzo[d][1,3]dioxol-5-yl)propan-2-yl)(methyl)carbamothioate] | 100 | 100.78 | 98.96 | 100.78 | 94.52 | > 8.52 | > 17.1 | 100.00 | 91.67 | 104.03 | 96.42 | 91.92 | 308 (≈ 82.3 µg/mL) | – | – | – | – |
| CCOC(=S)NC(C)Cc1ccc2c(c1)OCO2 (stereo not shown) [Prodrug 4, O-ethyl (1-(benzo[d][1,3]dioxol-5-yl)propan-2-yl)carbamothioate] | 100 | 100.00 | 100.28 | 97.80 | 95.32 | > 8.52 | > 17.1 | 100.00 | 103.44 | 100.85 | 94.76 | 94.28 | 60.3 (≈ 16.1 µg/mL) | – | – | – | – |
| CSC(=O)NC(C)Cc1ccc2c(c1)OCO2 (stereo not shown) [Prodrug 6, S-methyl (1-(benzo[d][1,3]dioxol-5-yl)propan-2-yl)carbamothioate] | 100 | 99.73 | 103.77 | 102.16 | 90.30 | > 8.52 | > 17.1 | 100.00 | 93.08 | 91.55 | 88.38 | 88.38 | 293 (≈ 74.1 µg/mL) | – | – | – | – |
| CCSC(=S)NC(C)Cc1ccc2c(c1)OCO2 (stereo not shown) [Prodrug 12, ethyl (1-(benzo[d][1,3]dioxol-5-yl)propan-2-yl)carbamodithioate] | 100 | 101.19 | 92.04 | 92.28 | 89.25 | > 8.52 | > 17.1 | 100.00 | 102.94 | 99.30 | 104.13 | 100.98 | 252 (≈ 71.3 µg/mL) | – | – | – | – |
| CSC(=S)NC(C)Cc1ccc2c(c1)OCO2 (stereo not shown) [Prodrug 10, methyl (1-(benzo[d][1,3]dioxol-5-yl)propan-2-yl)carbamodithioate] | 100 | 100.89 | 98.00 | 100.22 | 89.09 | > 8.52 | > 17.1 | 100.00 | 96.55 | 105.17 | 109.86 | 113.62 | 306 (≈ 82.5 µg/mL) | – | – | – | – |
| COC(=S)N(C)C(C)Cc1ccc2c(c1)OCO2 (stereo not shown) [Prodrug 1, O-methyl (1-(benzo[d][1,3]dioxol-5-yl)propan-2-yl)(methyl)carbamothioate] | 100 | 108.17 | 96.20 | 103.37 | 100.00 | > 8.52 | > 17.1 | 100.00 | 95.62 | 102.35 | 93.11 | 106.73 | 278 (≈ 74.4 µg/mL) | – | – | – | – |
| CCSC(=O)N(C)C(C)Cc1ccc2c(c1)OCO2 (stereo not shown) [Prodrug 7, S-ethyl (1-(benzo[d][1,3]dioxol-5-yl)propan-2-yl)(methyl)carbamothioate] | 100 | 110.62 | 111.95 | 113.27 | 102.65 | > 8.52 | > 17.1 | 100.00 | 99.17 | 97.73 | 95.86 | 103.73 | 291 (≈ 82 µg/mL) | – | – | – | – |
| CSC(=S)N(C)C(C)Cc1ccc2c(c1)OCO2 (stereo not shown) [Prodrug 9, methyl (1-(benzo[d][1,3]dioxol-5-yl)propan-2-yl)(methyl)carbamodithioate] | 100 | 101.32 | 96.64 | 98.79 | 97.14 | > 8.52 | > 17.1 | 100.00 | 97.22 | 96.84 | 107.55 | 89.55 | 30.4 (≈ 8.63 µg/mL) | – | – | – | – |
| O=C(O)Cc1ccccc1Nc1c(Cl)cccc1Cl [Diclofenac, reference compound] | – | – | – | – | – | – | 0.695 | 100.00 | 60.68 | 35.44 | 13.15 | 1.85 | – | 100 | 58.97 | 10.45 | 0.594 |
| CCSC(=O)NC(C)Cc1ccc2c(c1)OCO2 (stereo not shown) [Prodrug 8, S-ethyl (1-(benzo[d][1,3]dioxol-5-yl)propan-2-yl)carbamothioate] | 100 | 110.30 | 106.34 | 105.81 | 101.19 | > 8.52 | > 17.1 | 100.00 | 113.02 | 100.82 | 102.82 | 114.28 | 288 (≈ 77.1 µg/mL) | – | – | – | – |
| CCSC(=S)N(C)C(C)Cc1ccc2c(c1)OCO2 (stereo not shown) [Prodrug 11, ethyl (1-(benzo[d][1,3]dioxol-5-yl)propan-2-yl)(methyl)carbamodithioate] | 100 | 97.92 | 101.25 | 94.58 | 94.17 | > 8.52 | > 17.1 | 100.00 | 95.01 | 93.41 | 96.45 | 94.38 | 63.7 (≈ 19 µg/mL) | – | – | – | – |
| CCOC(=S)N(C)C(C)Cc1ccc2c(c1)OCO2 (stereo not shown) [Prodrug 3, O-ethyl (1-(benzo[d][1,3]dioxol-5-yl)propan-2-yl)(methyl)carbamothioate] | 100 | 106.31 | 97.30 | 97.75 | 96.85 | > 8.52 | > 17.1 | 100.00 | 100.73 | 95.33 | 99.99 | 91.16 | 131 (≈ 36.9 µg/mL) | – | – | – | – |
